# Counter-ions that a name gives are not always drawn. Like-named read-outs stand apart in the source and are kept apart here.
# Assays:
# [1] = Pharmacokinetic study of oral vs intra-cecal administration of tacrolimus (Example 13); assay type: in vivo, Yorkshire-Cross farm swine; conditions: female, Yorkshire-Cross
# Text: (§1) No further randomization procedure was employed.
# [2] = Tissue, plasma and GI content pharmacokinetics of tacrolimus, oral vs intra-cecal ingestible device delivery (Example 10); assay type: in vivo, Yorkshire-Cross farm swine; conditions: female, Yorkshire-Cross, pig
# Procedure: The primary objective of this study was to compare the tissue, plasma, rectal sample, and GI content pharmacokinetics of tacrolimus through oral versus intra-cecal ingestible device delivery in normal Yorkshire-Cross farm swine.
# as §1
# Animals in Group 1 received an ingestible device containing 0.8 mL of vehicle solution (80% alcohol, 20% HCO-60). Animals in Group 2 received orally […] liquid formulation of tacrolimus at 4 mg/0.8 mL per animal (Prograf: 5 mg/mL). Animals in Group 3 received intra-cecally an ingestible device containing tacrolimus at 1 mg in 0.8 mL per ingestible device. Animals in Group 4 received intra-cecally an ingestible device containing tacrolimus at 2 mg in 0.8 mL per ingestible device. Animals in Group 5 received intra-cecally an ingestible device containing tacrolimus at 4 mg in 0.8 mL per ingestible device. To control for potential confounding effects of the surgery, all groups fast on Day −11 at least 24 hr before being subjected to anesthesia followed by surgical placements of a cecal port by a veterinary surgeon at Day −10. All animals were fasted for at least 12 hr prior to dosing on Day 1. Animals were dosed via either intra-cecal dosing (IC) or oral dosing (PO) at Day 1 (between […].). […]
# Approximately 200˜400 mg of rectal content were collected, if available, with a fecal swab (Copan Diagnostics Nylon Flocked Dry Swabs, 502CS01). The fecal swab was pre-weighed and weighed after collection in the collection tube (Sterile Tube and Cap No Media, PFPM913S), and the sample weight was recorded. […]
# For tissue necropsy, small intestine fluid and cecal fluid were collected separately from all the animals into two separate square plastic bottles, and stored at −20° C. The length and diameter of the cecum and the colon was measured from one animal in each group and recorded for reference. […] All samples were weighed, and the tissue sample weights were recorded. […] Around 3 grams of the total punched sample were collected into a pre-weighed 15-mL conical tube, and the tissue weight was recorded. […]
# [3] = test system: cytokines involved in the JAK/STAT signaling pathway; conditions: PO or IC administration; 1 h and 3 h post-treatment
Structure (SMILES),"Cmax ([1]; pig, blood, Route PO, Dosage 0.09 mg/kg) [ng/mL]","AUC(0-t) ([1]; pig, in vivo, po, 0.09 mg/kg) [ng·h/mL]","Ratio Tissue(mean) (ng/g)/Trough(12 hr)(ng/mL) ([1]; pig, in vivo, po, 0.09 mg/kg)","Ratio Tissue(mean) (ng/g)/Trough(12 hr)(ng/mL) ([1]; swine, in vivo, po, 0.09 mg/kg)","Cmax ([2]; in vivo, 0.09 mg/kg, Route PO, Dose (mg · kg) 0.09) [ng/mL]","concentration at 12 h ([2]; in vivo, po, Trough (12 hr)) [ng/mL]","concentration at 12 h ([2]; whole blood, other: oral and intra-cecal (all groups), all groups (FIGS. 87-89 and Table 29), read-out: blood trough concentrations) [ng/mL]",IL-6 expression in plasma [3]
C=CC[C@@H]1/C=C(\C)C[C@H](C)C[C@H](OC)[C@H]2O[C@@](O)(C(=O)C(=O)N3CCCC[C@H]3C(=O)O[C@H](/C(C)=C/[C@@H]3CC[C@@H](O)[C@H](OC)C3)[C@H](C)[C@@H](O)CC1=O)[C@H](C)C[C@@H]2OC [tacrolimus],3.53 ± 3.84,16.8 ± 3.64,0,0,3.53 ± 3.84,9.57 ± 0.291,< 10,–
C[C@@H]1CCN(C(=O)CC#N)C[C@@H]1N(C)c1ncnc2[nH]ccc12 [tofacitinib citrate],–,–,–,–,–,–,–,inhibition of IL-6 expression was observed
